Assay results as given in patent US20150111815A1, “NOVEL CYCLOSPORIN DERIVATIVES FOR THE TREATMENT AND PREVENTION OF VIRAL INFECTIONS” (S&T Global Inc., priority 2011, published 2015).
Read-outs that look alike come from different tables or passages of the source. *1 amine or outer side, *2 acyl side, *3 side chain or, on linkers, in order; H or OH if unused. Where a SMILES comes first, the peptide text is derived from it. [ ]: non-standard residue; d: D form. ξ: configuration not given here. MeBmt = C/C=C/C[C@@H](C)[C@@H](O)[C@H](NC)C(=O)O; X2 = C=CCOC(C)(C)C[C@@H](C(=O)[*:2])N(C)[*:1]; X1 = CCN(CC)CC[C@H](C(=O)[*:2])N(C)[*:1]; X3 = CN(C)CCC[C@H](C(=O)[*:2])N(C)[*:1]; dNMeDab(Me2) = CN[C@H](CCN(C)C)C(=O)O; NMeIle(3ξ) = CCC(C)[C@H](NC)C(=O)O; NMeL = CN[C@@H](CC(C)C)C(=O)O; NMeV = CN[C@H](C(=O)O)C(C)C; Abu = CC[C@H](N)C(=O)O

Test system: HCV replicon in cell line ET (luc-ubi-neo/ET), Huh7 human hepatoma cells
Experiment: HCV subgenomic replicon assay (luciferase end point)
Assay type: cell-based
Method: The anti-HCV activity of cyclosporine derivatives were evaluated in the HCV subgenomic replicon assay. The assay use the cell line ET (luc-ubi-neo/ET), which is a Huh7 human hepatoma cell line harboring an HCV replicon with a stable luciferase (Luc) reporter. HCV RNA replication was assessed by quantifying HCV replicon-derived luciferase activity. The antiviral activity of cyclosporine analogs were evaluated after drug treatment, the EC 50 and EC 90 were determined in subsequent assessments by using the luciferase end point (Krieger, N., et al., 2001, J. Virol. 75, 4614-4624; Pietschmann, T., et al., 2002, J. Virol. 76, 4008-4021; each of which is incorporated herein by reference).

[1] = Hepatitis C virus, Huh-7, read-out: Antiviral activity: IC50 (μM)
[2] = HCV replicon-derived luciferase activity, Huh7 ET cells, read-out: Antiviral activity: IC50

Compound | IC50 [1] [µM] | IC50 [2] [µM]
C/C=C/C[C@@H](C)[C@@H](O)[C@H]1C(=O)N[C@@H](CC)C(=O)N(C)[C@@H](CCN(C)C)C(=O)N(C)[C@@H](CC(C)(C)O)C(=O)N[C@@H](C(C)C)C(=O)N(C)[C@@H](CC(C)C)C(=O)N[C@@H](C)C(=O)N[C@H](C)C(=O)N(C)[C@@H](CC(C)C)C(=O)N(C)[C@@H](CC(C)C)C(=O)N(C)[C@@H](C(C)C)C(=O)N1C [Example 32, [(S)-2-(N,N-Dimethylamino)ethyl-Sar]-3-[(γ-hydroxy)-NMeLeu]-4-cyclosporin] | < 5 | 
C/C=C/C[C@@H](C)[C@@H](O)[C@H]1C(=O)N[C@@H](CC)C(=O)N(C)[C@@H](CCN(CC)CC)C(=O)N(C)[C@@H](CC(C)(C)O)C(=O)N[C@@H](C(C)C)C(=O)N(C)[C@@H](CC(C)C)C(=O)N[C@@H](C)C(=O)N[C@H](C)C(=O)N(C)[C@@H](CC(C)C)C(=O)N(C)[C@@H](CC(C)C)C(=O)N(C)[C@@H](C(C)C)C(=O)N1C [Example 33, [(S)-2-(N,N-Diethylamino)ethyl-Sar]-3-[(γ-hydroxy)-NMeLeu]-4-Cyclosporin] | < 5 | 
C/C=C/C[C@@H](C)[C@@H](O)[C@H]1C(=O)N[C@@H](CC)C(=O)N(C)[C@H](CCCN(C)C)C(=O)N(C)[C@@H](CC(C)(C)O)C(=O)N[C@@H](C(C)C)C(=O)N(C)[C@@H](CC(C)C)C(=O)N[C@@H](C)C(=O)N[C@H](C)C(=O)N(C)[C@@H](CC(C)C)C(=O)N(C)[C@@H](CC(C)C)C(=O)N(C)[C@@H](C(C)C)C(=O)N1C [Example 37, [(R)-3-(N,N-Dimethylamino)propyl-Sar]-3-[(γ-hydroxy)-NMeLeu]-4-cyclosporin] | < 0.25 | 
C/C=C/C[C@@H](C)[C@@H](O)[C@H]1C(=O)N[C@@H](CC)C(=O)N(C)[C@H](CCCN(C)C)C(=O)N(C)[C@@H](C(C)CC)C(=O)N[C@@H](C(C)C)C(=O)N(C)[C@@H](CC(C)C)C(=O)N[C@@H](C)C(=O)N[C@H](C)C(=O)N(C)[C@@H](CC(C)C)C(=O)N(C)[C@@H](CC(C)C)C(=O)N(C)[C@@H](C(C)C)C(=O)N1C (stereo partly drawn) [Example 45, [(R)-3-(N,N-Dimethylamino)propyl-Sar]-3-[NMeIle]-4-cyclosporin] (cyclo(A[dA][NMeL][NMeL][NMeV][MeBmt][Abu][X3][NMeIle(3ξ)]V[NMeL])) | < 0.25 | 
C=CCOC(C)(C)C[C@H]1C(=O)N[C@@H](C(C)C)C(=O)N(C)[C@@H](CC(C)C)C(=O)N[C@@H](C)C(=O)N[C@H](C)C(=O)N(C)[C@@H](CC(C)C)C(=O)N(C)[C@@H](CC(C)C)C(=O)N(C)[C@@H](C(C)C)C(=O)N(C)[C@@H]([C@H](O)[C@H](C)C/C=C/C)C(=O)N[C@@H](CC)C(=O)N(C)[C@H](CCN(C)C)C(=O)N1C [Example 22, [(R)-2-(N,N-Dimethylamino)ethyl-Sar]-3-[(γ-allyloxy)-NMeLeu]-4-cyclosporin] (cyclo(A[dA][NMeL][NMeL][NMeV][MeBmt][Abu][dNMeDab(Me2)][X2]V[NMeL])) | < 0.25 | 
C/C=C/C[C@@H](C)[C@@H](O)[C@H]1C(=O)N[C@@H](CC)C(=O)N(C)[C@H](CCN(CC)CC)C(=O)N(C)[C@@H](CC(C)(C)O)C(=O)N[C@@H](C(C)C)C(=O)N(C)[C@@H](CC(C)C)C(=O)N[C@@H](C)C(=O)N[C@H](C)C(=O)N(C)[C@@H](CC(C)C)C(=O)N(C)[C@@H](CC(C)C)C(=O)N(C)[C@@H](C(C)C)C(=O)N1C [Example 26, [(R)-2-(N,N-Diethylamino)ethyl-Sar]-3-[(γ-hydroxy)-NMeLeu]-4-cyclosporin] | < 0.25 | 
C=CCOC(C)(C)C[C@H]1C(=O)N[C@@H](C(C)C)C(=O)N(C)[C@@H](CC(C)C)C(=O)N[C@@H](C)C(=O)N[C@H](C)C(=O)N(C)[C@@H](CC(C)C)C(=O)N(C)[C@@H](CC(C)C)C(=O)N(C)[C@@H](C(C)C)C(=O)N(C)[C@@H]([C@H](O)[C@H](C)C/C=C/C)C(=O)N[C@@H](CC)C(=O)N(C)[C@H](CCN(CC)CC)C(=O)N1C [Example 28, [(R)-2-(N,N-Diethylamino)ethyl-Sar]-3-[(γ-allyloxy)-NMeLeu]-4-cyclosporin] (cyclo(A[dA][NMeL][NMeL][NMeV][MeBmt][Abu][X1][X2]V[NMeL])) | < 0.25 | 
C/C=C/C[C@@H](C)[C@@H](O)[C@H]1C(=O)N[C@@H](CC)C(=O)N(C)[C@H](CCN(CC)CC)C(=O)N(C)[C@@H](C(C)C)C(=O)N[C@@H](C(C)C)C(=O)N(C)[C@@H](CC(C)C)C(=O)N[C@@H](C)C(=O)N[C@H](C)C(=O)N(C)[C@@H](CC(C)C)C(=O)N(C)[C@@H](CC(C)C)C(=O)N(C)[C@@H](C(C)C)C(=O)N1C [Example 29, [(R)-2-(N,N-Diethylamino)ethyl-Sar]-3-[NMeVal]-4-cyclosporin] (cyclo(A[dA][NMeL][NMeL][NMeV][MeBmt][Abu][X1][NMeV]V[NMeL])) | < 0.25 | 
C/C=C/C[C@@H](C)[C@@H](O)[C@H]1C(=O)N[C@@H](CC)C(=O)N(C)[C@H](CCN(C)C)C(=O)N(C)[C@@H](CC(C)(C)O)C(=O)N[C@@H](C(C)C)C(=O)N(C)[C@@H](CC(C)C)C(=O)N[C@@H](C)C(=O)N[C@H](C)C(=O)N(C)[C@@H](CC(C)C)C(=O)N(C)[C@@H](CC(C)C)C(=O)N(C)[C@@H](C(C)C)C(=O)N1C [Example 20, [(R)-2-(N,N-Dimethylamino)ethyl-Sar]-3-[(γ-hydroxy)-NMeLeu]-4-cyclosporin] | < 0.25 | 
C/C=C/C[C@@H](C)[C@@H](O)[C@H]1C(=O)N[C@@H](CC)C(=O)N(C)[C@H](CCCN(C)C)C(=O)N(C)[C@@H](CC(C)(C)OC)C(=O)N[C@@H](C(C)C)C(=O)N(C)[C@@H](CC(C)C)C(=O)N[C@@H](C)C(=O)N[C@H](C)C(=O)N(C)[C@@H](CC(C)C)C(=O)N(C)[C@@H](CC(C)C)C(=O)N(C)[C@@H](C(C)C)C(=O)N1C [Example 39, [(R)-3-(N,N-Dimethylamino)propyl-Sar]-3-[(γ-methoxy)-NMeLeu]-4-cyclosporin] | < 0.25 | 
C/C=C/C[C@@H](C)[C@@H](O)[C@H]1C(=O)N[C@@H](CC)C(=O)N(C)[C@H](CCCN(C)C)C(=O)N(C)[C@@H](C(C)C)C(=O)N[C@@H](C(C)C)C(=O)N(C)[C@@H](CC(C)C)C(=O)N[C@@H](C)C(=O)N[C@H](C)C(=O)N(C)[C@@H](CC(C)C)C(=O)N(C)[C@@H](CC(C)C)C(=O)N(C)[C@@H](C(C)C)C(=O)N1C [Example 43, [(R)-3-(N,N-Dimethylamino)propyl-Sar]-3-[NMeVal]-4-cyclosporin] (cyclo(A[dA][NMeL][NMeL][NMeV][MeBmt][Abu][X3][NMeV]V[NMeL])) | < 0.25 | 
C=CCOC(C)(C)C[C@H]1C(=O)N[C@@H](C(C)C)C(=O)N(C)[C@@H](CC(C)C)C(=O)N[C@@H](C)C(=O)N[C@H](C)C(=O)N(C)[C@@H](CC(C)C)C(=O)N(C)[C@@H](CC(C)C)C(=O)N(C)[C@@H](C(C)C)C(=O)N(C)[C@@H]([C@H](O)[C@H](C)C/C=C/C)C(=O)N[C@@H](CC)C(=O)N(C)[C@H](CCCN(C)C)C(=O)N1C [Example 41, [(R)-3-(N,N-Dimethylamino)propyl-Sar]-3-[(γ-allyloxy)-NMeLeu]-4-cyclosporin] (cyclo(A[dA][NMeL][NMeL][NMeV][MeBmt][Abu][X3][X2]V[NMeL])) | < 0.25 | 
C/C=C/C[C@@H](C)[C@@H](O)[C@H]1C(=O)N[C@@H](CC)C(=O)N(C)[C@H](CCN(CC)CC)C(=O)N(C)[C@@H](CC(C)(C)OC)C(=O)N[C@@H](C(C)C)C(=O)N(C)[C@@H](CC(C)C)C(=O)N[C@@H](C)C(=O)N[C@H](C)C(=O)N(C)[C@@H](CC(C)C)C(=O)N(C)[C@@H](CC(C)C)C(=O)N(C)[C@@H](C(C)C)C(=O)N1C [Example 27, [(R)-2-(N,N-Diethylamino)ethyl-Sar]-3-[(γ-methoxy)-NMeLeu]-4-cyclosporin] | < 0.25 | 
C/C=C/C[C@@H](C)[C@@H](O)[C@H]1C(=O)N[C@@H](CC)C(=O)N(C)[C@H](CCN(C)C)C(=O)N(C)[C@@H](CC(C)(C)OC)C(=O)N[C@@H](C(C)C)C(=O)N(C)[C@@H](CC(C)C)C(=O)N[C@@H](C)C(=O)N[C@H](C)C(=O)N(C)[C@@H](CC(C)C)C(=O)N(C)[C@@H](CC(C)C)C(=O)N(C)[C@@H](C(C)C)C(=O)N1C [Example 21, [(R)-2-(N,N-Dimethylamino)ethyl-Sar]-3-[(γ-methoxy)-NMeLeu]-4-cyclosporin] | < 0.25 | 
[(R,S)-2-(N,N-Dimethylamino)ethyl-Sar]-3-cyclosporin |  | < 1.5
C/C=C/C[C@@H](C)[C@@H](O)[C@H]1C(=O)N[C@@H](CC)C(=O)N(C)[C@H](CCN(C)C)C(=O)N(C)[C@@H](C(C)CC)C(=O)N[C@@H](C(C)C)C(=O)N(C)[C@@H](CC(C)C)C(=O)N[C@@H](C)C(=O)N[C@H](C)C(=O)N(C)[C@@H](CC(C)C)C(=O)N(C)[C@@H](CC(C)C)C(=O)N(C)[C@@H](C(C)C)C(=O)N1C (stereo partly drawn) [Example 24, [(R)-2-(N,N-Dimethylamino)ethyl-Sar]-3-[NMeIle]-4-cyclosporin] (cyclo(A[dA][NMeL][NMeL][NMeV][MeBmt][Abu][dNMeDab(Me2)][NMeIle(3ξ)]V[NMeL])) | < 0.25 | 
C/C=C/C[C@@H](C)[C@@H](O)[C@H]1C(=O)N[C@@H](CC)C(=O)N(C)[C@H](CCN(CC)CC)C(=O)N(C)[C@@H](C(C)CC)C(=O)N[C@@H](C(C)C)C(=O)N(C)[C@@H](CC(C)C)C(=O)N[C@@H](C)C(=O)N[C@H](C)C(=O)N(C)[C@@H](CC(C)C)C(=O)N(C)[C@@H](CC(C)C)C(=O)N(C)[C@@H](C(C)C)C(=O)N1C (stereo partly drawn) [Example 30, [(R)-2-(N,N-Diethylamino)ethyl-Sar]-3-[NMeIle]-4-cyclosporin] (cyclo(A[dA][NMeL][NMeL][NMeV][MeBmt][Abu][X1][NMeIle(3ξ)]V[NMeL])) | < 0.25 | 
[(R)-2-(N,N-Dimethylamino)ethyl-Sar]-3-[NMeLeu]-4-cyclosporin |  | < 0.25
